The values below come from patent publication US20260092246A1, “PLATFORM FOR ANTIMICROBIAL SUSCEPTIBILITY TESTING AND BACTERIAL IDENTIFICATION” (ASTRADX, INC., priority 2022, published 2026).

Read-outs that look alike come from different tables or passages of the source.

In this test the test system is E. coli. Nature of the test: Antimicrobial susceptibility testing by dilution-temporal modeling (DTM) of growth in microwell plates with doubling dilutions of antibiotic. In kind it is cell-based. To be noted: Escherichia coli. The source says:
“Categorical agreement” is a term of art in AST that describes whether an organism is susceptible or resistant by each of two methods, typically a reference method and an investigative method. The reference method is broth microdilution and comes from the CLSI (M100).
Each experiment involved a standard inoculum of bacteria grown at a concentration similar to what was recovered from the growth-detection step, which began with whole blood. The inoculum was automatically dispensed into the wells of a microwell plate. The wells contained doubling dilutions of standard antibiotics such as cefepime, meropenem, ciprofloxacin, and gentamicin (for gram-negative bacteria). A large number of wells enabled multiple replicates per condition, providing robustness to random dropouts or to growth variation.
In each experiment, the growth and color of each well was monitored for growth by an automated imager. Serial images for each “bug-drug” combination were combined to create a unified picture of bacterial growth for each antibiotic, measure MICs, and determine any correction factors necessary to maximize S/I/R categorical agreement with reference MICs. […]

Take `CO/N=C(\C(=O)N[C@@H]1C(=O)N2C(C(=O)[O-])=C(C[N+]3(C)CCCC3)CS[C@H]12)c1csc(N)n1` [cefepime]: the MIC (cefepime-resistant strain of E. coli, FIG. 6B, within a single doubling dilution of reference-method MIC, read-out: MIC by the disclosed method (concentration at which growth falls off)) amounted to 16 µg/mL.
As for `C[C@@H](O)[C@H]1C(=O)N2C(C(=O)O)=C(S[C@@H]3CN[C@H](C(=O)N(C)C)C3)[C@H](C)[C@H]12` [meropenem], the MIC (read-out: MIC by the disclosed method (concentration at which fall in growth is visible)) stood at 0.5 µg/mL.
